What was measured:
calmodulin (CaM) = biological target: T1, calmodulin (CaM) (Homo sapiens, UniProt P0DP23); assay: SHG detection of ligand-induced conformational change of labeled calmodulin tethered to Ni-NTA supported lipid bilayer; assay type: binding; details: buffer containing 1 mM CaCl2 injected; N=3
T1 construct: purchased EMD Millipore (Billerica, Mass.)
Description: MBP and CaM Proteins: To explore the ability of our SHG bilayer system to detect and measure conformational changes of a protein, we began by testing the system on CaM and MBP, two proteins previously studied by SHG [32, 33]. First, we tethered labeled CaM to the SLB surface and monitored the change in SHG intensity upon addition of the calmodulin binding peptide (CBP) in the presence or absence of calcium-containing buffers. […] When calcium is omitted from the buffer, addition of the peptide alone results in M=3.1%, (N=3, SEM±1.6) change in SHG intensity, essentially no change (FIG. 7B). […] Next, we evaluated the effect of adding calcium ions. […] Peptide was then added directly to these samples two minutes after calcium addition, producing a positive signal change of M=8.7% (N=3, SEM±0.4). As the magnitude of the SHG signal is proportional to the net, average orientation of the dye label relative to the surface normal, the different magnitudes of SHG signal change upon binding CBP and calcium to unbound CaM confirm that these ligands bind to specific and different conformations of the protein. SHG signal changes can occur in either the positive or negative direction relative to baseline depending on whether the net, average orientation of the probe moves closer to or further away from the surface normal, respectively. […]
(§1) SHG signal was monitored over several minutes after injection.

[1] = biological target: monomeric forms of avidin or streptavidin; details: read-out: biotin-binding affinity of monomeric forms of avidin or streptavidin; cited from earlier work
His-tag-Ni-NTA linkage = assay: Specificity of protein attachment to bilayer: incubation with or without imidazole, SHG signal; assay type: binding; details: imidazole 350 mM (FIG. 6A legend) / 300 mM (methods)
Protocol: We began by characterizing the attachment of the proteins to our SLB surface. The SLB surface we employed has integrated immobilized metal affinity (Ni-NTA) chemistry to specifically tether the proteins to the bilayer in an oriented manner via a poly-histidine tag at the N- or C-terminus. To test the specificity of this interaction, each protein was incubated on the bilayer in the presence or absence of imidazole, a competitive inhibitor of His-tagged protein binding. […] When labeled protein is incubated in the presence of imidazole, SHG signal levels are reduced to less than 10% of the original signal or to background levels, i.e. to those of bilayer alone.

[2] = biological target: T2, maltose binding protein (MBP) (Escherichia coli, UniProt P0AEX9); assay: SHG detection of ligand-induced conformational change of lysine-labeled MBP tethered to Ni-NTA supported lipid bilayer; design: purchased AtGen Co, Ltd (Seongnam-si, Gyeonggi-do, South Korea); details: for change in SHG intensity (M): 2 mM maltose, MBP labeled at pH 7.5, N=3; for change in SHG signal (M): 2 mM, MBP labeled at pH 8.3, N=4
Protocol: We also performed a similar set of experiments with MBP. First, we monitored the SHG intensity of MBP labeled at pH 8.3 upon addition of buffer, lactose, or maltose. […] Because the addition of both 2 mM lactose and buffer alone result in negligible changes in SHG intensity, the change in SHG intensity upon maltose addition is specific to ligand-induced conformational change upon binding.
The converse trend, preference at K88 over K15, was observed when the experimental conditions changed to pH 8.3. […] Based on inspection of the crystal structures, we hypothesized that when MBP is primarily labeled at K15 rather than K88, this could alter the directionality of SHG signal change upon ligand addition relative to the reverse case, since K15 and K88 appear to rotate towards and away from the surface normal, respectively, assuming the protein is oriented with its N-terminus facing the bilayer. […] Consistent with previous results, the addition of lactose and buffer alone had no effect.
J Am Chem Soc 136(29):10349-10360). […] (under standard kinetic condition described in ref [28].
Excess protein was removed by additional washes after incubation.
as §1

[3] = biological target: T2, maltose binding protein (MBP); assay: Example 2 SHG kinetic reads of PyMPO-labeled His-tagged MBP tethered on 10% Ni-NTA bilayer; details: 10 uL injection of 2 mM solution into 10 uL well; 10% Ni-NTA tethered MBP
Protocol: Protein labeling protocol: Stock His-tagged maltose binding protein (MBP) (1 mL at nominal 0.5 mg/mL) was buffer exchanged from 20 mM Tris-HCL pH 8.0, 0.1 M NaCl, 10% Glycerol into 0.1 M Na phosphate, pH 7.5 by passing over two of the 2 mL Zeba™ Spin Desalting Columns (Thermo Scientific) equilibrated per the manufacturer's instructions. Concentration and volume of the buffer exchanged material were determined by measuring absorbance on a NanoDrop Spectrophotometer (Thermo Scientific). PyMPO-NHS was weighed out and dissolved to 2 mM in dry DMSO. PyMPO-NHS was added to the buffer exchanged MBP at 3.5:1 mole equivalents. The conjugation reaction was allowed to proceed in the dark at room temp, stirring gently, for 15 minutes. The reaction was terminated by buffer exchange back into the MBP storage buffer (20 mM Tris-HCL pH 8.0, 0.1 M NaCl, 10% Glycerol) over a fresh pair of Zeba™ Spin Desalting Columns. The resultant conjugate was centrifuged at 16K×g for 20 minutes at 4° C., and volume, concentration and degree of labeling was determined for the supernatant by measuring absorbance at 280 nm and 410 nm on the NanoDrop. […]
Scanning: The entire slide was line scanned to gather SHG data for determining the relative tethering efficiency of 3% vs 10% Ni-NTA surfaces. Well positions for 10% Ni-NTA tethered MBP were recorded and used to set up the MBP kinetic reads (3 wells total). […]

SMILES | change in SHG intensity (M) [2] | change in SHG signal (M) [2] | other results
[Ca+2].[Cl-].[Cl-] [CaCl2] | – | – | change in SHG signal (M) (calmodulin (CaM)): −12.6%
O=C(O)CCCC[C@@H]1SC[C@@H]2NC(=O)N[C@@H]21 [biotin] | – | – | Kd [1]: ~10 nM
c1c[nH]cn1 [imidazole] | – | – | SHG signal level of labeled protein incubated in the presence of imidazole (His-tag-Ni-NTA linkage): less than 10 % of the original signal
OC[C@H]1O[C@@H](O[C@H]2[C@H](O)[C@@H](O)C(O)O[C@@H]2CO)[C@H](O)[C@@H](O)[C@H]1O (some centres unmarked) [lactose] | no effect | 0.44% | –
OC[C@H]1O[C@H](O[C@H]2[C@H](O)[C@@H](O)[C@H](O)O[C@@H]2CO)[C@H](O)[C@@H](O)[C@@H]1O [maltose] | 27.4% | −33.8% | SHG response (induced conformational change) of MBP [3]: only responded to addition of maltose
